In patent US20050261290A1, “Novel compounds of proline and morpholine derivatives” (priority 2004, published 2005):
Like-named read-outs stand apart in the source and are kept apart here.

Biological target: human 11b-hsd-1 (Homo sapiens, UniProt P28845)
Assay: Inhibition constant Ki of human 11b-hsd-1 (3H-cortisone to 3H-cortisol conversion, HPLC)
Assay type: biochemical
Conditions: for Ki: apparent Ki, read-out: Ki app
Experimental: In each well, varying amounts of compounds are incubated with a fixed amount of 11b-hsd-1 (4 nM) and NADPH (500 μM) for 30 to 40 min at room temperature in the assay buffer. The enzyme concentration was determined by titration using reversible tight-binding inhibitors. […] The area of 3H-cortisol is calculated and plotted versus time to determine a linear velocity. […] Where vi, and vo are the rates of cortisol formation in the presence and in the absence of inhibitor, respectively, I is the inhibitor concentration and E is the 11 b-hsd-1 concentration in the assay buffer. […] NADPH, Glucose-6-Phosphate (G6P), and Glucose-6-Phosphate dehydrogenase was purchased from Sigma.

Sequence of human 11b-hsd-1 (P28845 whole entry): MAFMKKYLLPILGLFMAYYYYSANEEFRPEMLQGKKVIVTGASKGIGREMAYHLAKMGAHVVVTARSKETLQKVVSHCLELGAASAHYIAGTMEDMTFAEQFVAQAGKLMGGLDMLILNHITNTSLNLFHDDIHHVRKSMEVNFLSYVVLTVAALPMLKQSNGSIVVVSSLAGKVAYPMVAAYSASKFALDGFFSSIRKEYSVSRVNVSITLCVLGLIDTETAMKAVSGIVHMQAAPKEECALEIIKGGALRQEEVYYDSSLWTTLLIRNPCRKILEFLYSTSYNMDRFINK

Row | SMILES | inhibition at 0.1 µM (0.1 μM compound) [%] | Ki [nM] | Ki (human 11b-hsd-1) [nM] | inhibition at 0.1 µM (compound at 0.1 μM) [%]
1 | CCN1CCOC[C@@H]1C(=O)NC1C2CC3CC(C2)CC1C3 (stereo partly drawn) [Example 1, (R)-4-Ethyl-morpholine-3-carboxylic acid adamantan-2-ylamide] |  |  | 2.1 | 100
2 | O=C(NC1C2CC3CC(C2)CC1C3)[C@H]1COCCN1Cc1ccccc1 (some centres unmarked) [Example 2] |  |  | 2.4 | 100
3 | O=C(NCc1ccccc1)[C@H]1CCCN1CC1CCCCC1 [Example 3, N-benzyl-1-(cyclohexylmethyl)-D-prolinamide] |  |  | 15 | 92
4 | CC(C)CN1CCC[C@@H]1C(=O)NCc1ccccc1 [Example 4] |  |  | 3.6 | 94
5 | O=C(NCc1ccccc1)[C@@H]1CCCN1CC1CCCCC1 [Example 5, N-benzyl-1-(cyclohexylmethyl)-L-prolinamide] |  |  |  | 29
6 | O=C(NC12CC3CC(CC(C3)C1)C2)[C@H]1CCCN1CC1CCCCC1 [Example 9, N-1-adamantyl-1-(cyclohexylmethyl)-D-prolinamide] |  |  | 1.7 | 100
7 | O=C(NC12CC3CC(CC(C3)C1)C2)[C@H]1CCCN1Cc1ccc(Cl)cc1 [Example 10] |  |  | 0.85 | 100
8 | CN(C(=O)[C@H]1COCCN1CC1CCCCC1)C1CCCCC1 [Example 11, (3R)-N-cyclohexyl-4-(cyclohexylmethyl)-N-methylmorpholine-3-carboxamide] |  |  | 38.3 | 80
9 | CCN1CCCC[C@@H]1C(=O)NC12CC3CC(CC(C3)C1)C2 [Example 12] |  |  | 14 | 89
10 | O=C(NCc1ccc(Cl)cc1)[C@H]1CCCN1CC1CCCCC1 [Example 13] |  |  | 1 | 85
11 | CC(=O)N1CCC[C@@H]1C(=O)NC1C2CC3CC(C2)CC1C3 (stereo partly drawn) [Example 18, N-2-adamantyl-1-acetyl-D-prolinamide] |  |  | 16.4 | 85
12 | NC(=O)CN1CCC[C@@H]1C(=O)NC1C2CC3CC(C2)CC1C3 (some centres unmarked) [Example 19] |  |  | 17 | 86
13 | CN1CCC[C@@H]1C(=O)NC12CC3CC(CC(C3)C1)C2 [Example 20] |  |  | 23.3 | 72
14 | CCCN1CCC[C@@H]1C(=O)NC12CC3CC(CC(C3)C1)C2 [Example 21] |  |  | 1.2 | 100
15 | O=C(NC12CC3CC(CC(C3)C1)C2)[C@H]1CCCN1CC(F)(F)F [Example 22] |  |  | 0.85 | 100
16 | CCN1CCC[C@@H]1C(=O)NC12CC3CC(CC(C3)C1)C2 [Example 23] |  |  | 2.6 | 94
17 | CCN1C[C@H](O)C[C@@H]1C(=O)NC1C2CC3CC(C2)CC1C3 (some centres unmarked) [Example 24] |  |  | 1.4 | 100
18 | CC(C)CN1C[C@H](O)C[C@@H]1C(=O)NC1C2CC3CC(C2)CC1C3 (some centres unmarked) [Example 25] |  |  | 1.7 | 100
19 | O=C(NC1C2CC3CC(C2)CC1C3)[C@H]1C[C@@H](O)CN1Cc1ccccc1 (some centres unmarked) [Example 26] |  |  | 1 | 100
20 | O=C(NC1C2CC3CC(C2)CC1C3)[C@H]1C[C@@H](O)CN1Cc1ccc(F)cc1 (some centres unmarked) [Example 27] |  |  | 1.1 | 100
21 | O=C(NC1C2CC3CC(C2)CC1C3)[C@H]1C[C@@H](O)CN1CC1CCCC1 (stereo partly drawn) [Example 28, (4R)-N-2-adamantyl-1-cyclopentylmethyl-4-hydroxy-D-prolinamide] |  |  | 1 | 100

Row | SMILES | inhibition at 0.1 µM (0.1 μM compound) [%] | Ki [nM] | Ki (human 11b-hsd-1) [nM] | inhibition at 0.1 µM (compound at 0.1 μM) [%]
22 | CC(C)CN1C[C@H](O)C[C@@H]1C(=O)NC1CCCCC1 [Example 29] |  |  | 39.2 | 69
23 | O=C(NC1CCCCC1)[C@H]1C[C@@H](O)CN1CC1CCCC1 [Example 30] |  |  |  | 63
24 | O=C(NC1CCCCC1)[C@H]1C[C@@H](O)CN1Cc1ccc(F)cc1 [Example 31] |  |  |  | 53
25 | CC(C)CN1CCOC[C@@H]1C(=O)NCc1c(F)cccc1F [Example 32] |  |  |  | 67
26 | CC(C)CN1CCOC[C@@H]1C(=O)NCc1cccc(F)c1 [Example 33] |  |  |  | 65
27 | CC(C)CN1CCOC[C@@H]1C(=O)NCc1ccc(F)cc1 [Example 34] |  |  | 18 | 79
28 | CCOc1ccccc1CNC(=O)[C@H]1COCCN1CC(C)C [Example 35] |  |  | 22.6 | 82
29 | CN(Cc1ccc(F)cc1)C(=O)[C@H]1COCCN1Cc1ccc(C#N)cc1 [Example 36] |  |  | 21.4 | 90
30 | CC(C)CN1CCOC[C@@H]1C(=O)N(C)Cc1ccc(F)cc1 [Example 37] |  |  | 39.3 | 100
31 | CCCN1CCC[C@@H]1C(=O)NC1Cc2ccccc2C1 [Example 38] |  |  | 7.9 | 90.4
32 | O=C(NC1CCc2ccccc21)[C@H]1CCCN1CC1CCCC1 (some centres unmarked) [Example 39] |  |  | < 1 | 100
33 | Cc1ncccc1CNC(=O)[C@H]1CCCN1CC(C)C [Example 40] |  |  | 19 | 100
34 | O=C(NC1C2CC3CC(C2)CC1C3)[C@H]1CCCN1Cc1ccccn1 (some centres unmarked) [Example 41] |  |  | < 1 | 100
35 | CN1CCC(CN2C[C@H](O)C[C@@H]2C(=O)NC2CCCCC2)CC1 [Example 42, (4R)-N-cyclohexyl-4-hydroxy-1-[(1-methylpiperidin-4-yl)methyl]-D prolinamide] |  |  |  | 0
36 | CN(C)CCN1C[C@H](O)C[C@@H]1C(=O)NC1C2CC3CC(C2)CC1C3 (some centres unmarked) [Example 43] |  |  |  | 31.9
37 | CN(C)CCN1CCOC[C@@H]1C(=O)NC1C2CC3CC(C2)CC1C3 (stereo partly drawn) [Example 44, (3R)-N-2-adamantyl-4-[2-(dimethylamino)ethyl]morpholine-3-carboxamide] |  |  |  | 59.4
38 | NC1C[C@H](C(=O)NC2C3CC4CC(C3)CC2C4)N(CC2CCCC2)C1 (stereo partly drawn) [Example 45, N-2-adamantyl-4-amino-1-(cyclopentylmethyl)-D-prolinamide] |  |  |  | 81
39 | CN1CCC(CN2C[C@H](O)C[C@@H]2C(=O)NC2C3CC4CC(C3)CC2C4)CC1 (stereo partly drawn) [Example 47, (4R)-N-2-adamantyl-4-hydroxy-1-[(1-methylpiperidin-4-yl)methyl]-D prolinamide] |  |  |  | 38
40 | O=C(NC1C2CC3CC(C2)CC1C3)[C@H]1C[C@@H](O)CN1CC1CCOCC1 (some centres unmarked) [Example 48] |  |  |  | 83
41 | CN(C(=O)[C@H]1COCCN1CC1CCOCC1)C1CCCCC1 [Example 49] |  |  |  | 64

Other lines, results leading:

Row | inhibition at 0.1 µM (0.1 μM compound) [%] | Ki [nM] | Ki (human 11b-hsd-1) [nM] | inhibition at 0.1 µM (compound at 0.1 μM) [%] | SMILES
42 | 100 | 5.9 |  |  | O=C(NC12CC3CC(CC(C3)C1)C2)[C@H]1CCCC[C@H]1NCc1ccc(Cl)cc1 (racemic) [Example 201]
43 | 100 | 1 |  |  | O=C(NC12CC3CC(CC(C3)C1)C2)[C@@H]1[C@H]2CC[C@H](C2)N1Cc1ccc(Cl)cc1 (racemic) [Example 204]
44 | 100 | 1 |  |  | O=C(NC12CC3CC(CC(C3)C1)C2)[C@H]1[C@H]2CC[C@H](C2)N1Cc1ccc(Cl)cc1 (relative stereo) [Example 203]
45 | 100 | 1.9 |  |  | CC(C)CN1[C@H]2CC[C@H](C2)[C@H]1C(=O)NC12CC3CC(CC(C3)C1)C2 (relative stereo) [Example 209]
46 | 100 | 1 |  |  | CC(C)CN1[C@H]2CC[C@H](C2)[C@@H]1C(=O)NC12CC3CC(CC(C3)C1)C2 (relative stereo) [Example 210]
47 |  |  | 1.3 | 100 | O=C(NC1CCCCC1)[C@H]1CCCN1CC1CCCC1 [Example 50]
48 |  |  | 1 | 100 | CC(C)CN1CCC[C@@H]1C(=O)N[C@@H]1CCCc2ccccc21 [Example 51]
49 |  |  | 4.6 | 100 | N#Cc1ccc(CN2CCC[C@@H]2C(=O)NC2CCCCC2)cc1 [Example 52]
50 |  |  | 4.6 | 100 | CCOc1ccccc1CNC(=O)[C@H]1CCCN1CC(C)C [Example 53]
51 |  |  | 13.2 | 94 | CCOc1ccccc1CNC(=O)[C@H]1CCCN1CC1CCCC1 [Example 54]
52 |  |  | 3.7 | 100 | CCCN1CCC[C@@H]1C(=O)NC1CCCCC1C (some centres unmarked) [Example 55]
53 |  |  | 8 | 92 | CCCN1CCC[C@@H]1C(=O)N[C@@H]1CCCc2ccccc21 [Example 56]
54 |  |  | 23.4 | 81 | CC(C)CN1CCOC[C@@H]1C(=O)NCc1ccccc1F [Example 57]
55 |  |  | 28 | 70 | CCN1CCC[C@@H]1C(=O)NC1CCCCC1C (some centres unmarked) [Example 58]
56 |  |  | 22 | 71 | CC1(C(=O)NC2CCCCC2)CCCN1Cc1ccc(C#N)cc1 (centres unmarked) [Example 59]
57 |  |  | 25 | 79 | CCCN1CCCC1(C)C(=O)NC1CCCCC1 (centres unmarked) [Example 60]
58 |  |  |  | 74 | CN1CCC(CN2CCOC[C@@H]2C(=O)NC2C3CC4CC(C3)CC2C4)CC1 (some centres unmarked) [Example 61]
59 |  |  | 1.1 | 100 | N#Cc1ccc(CN2CCOC[C@@H]2C(=O)NC2C3CC4CC(C3)CC2C4)cc1 (some centres unmarked) [Example 62]
60 |  |  | 1 | 100 | O=C(NC1C2CC3CC(C2)CC1C3)[C@H]1COCCN1CC1CCCC1 (some centres unmarked) [Example 63]
61 |  |  | 1.3 | 100 | CC(C)CN1CCOC[C@@H]1C(=O)NC1C2CC3CC(C2)CC1C3 (some centres unmarked) [Example 64]
62 |  |  | 2.6 | 100 | CCCN1CCOC[C@@H]1C(=O)NC1C2CC3CC(C2)CC1C3 (some centres unmarked) [Example 65]
63 |  |  | 10 | 89 | O=C(NC1C2CC3CC(C2)CC1C3)[C@H]1COCCN1CCO (some centres unmarked) [Example 66]
64 |  |  | 1 | 100 | O=C(NC1C2CC3CC(C2)CC1C3)[C@H]1COCCN1Cc1ccccn1 (some centres unmarked) [Example 67]
65 |  |  | 2 | 93.5 | O=C(NCC1(O)CCCCCC1)[C@H]1CCCN1CC1CCCC1 [Example 68]
66 |  |  | 7 | 100 | CC(C)CN1CCC[C@@H]1C(=O)NCC1(O)CCCCC1 [Example 69]
